Assays:
[1] = compound: COc1ccc2c(c1)[C@]1(C[C@H]1c1ccc3c(/C=C/c4ccc(CN5C[C@@H](C)O[C@@H](C)C5)cc4)n[nH]c3c1)C(=O)N2
Paclitaxel = compound: CC(=O)O[C@H]1C(=O)[C@@]2(C)[C@H]([C@H](OC(=O)c3ccccc3)[C@]3(O)C[C@H](OC(=O)[C@H](O)[C@@H](NC(=O)c4ccccc4)c4ccccc4)C(C)=C1C3(C)C)[C@]1(OC(C)=O)CO[C@@H]1C[C@@H]2O [Paclitaxel]
Tivantinib/ARQ197 = compound: O=C1NC(=O)[C@@H](c2cn3c4c(cccc24)CCC3)[C@@H]1c1c[nH]c2ccccc12 [Tivantinib/ARQ197]
Ceritinib/LDK378 = compound: Cc1cc(Nc2ncc(Cl)c(Nc3ccccc3S(=O)(=O)C(C)C)n2)c(OC(C)C)cc1C1CCNCC1 [Ceritinib/LDK378]
LEE011/Ribociclib [2] = compound: T1, CN(C)C(=O)c1cc2cnc(Nc3ccc(N4CCNCC4)cn3)nc2n1C1CCCC1 [LEE011/Ribociclib]
Volasertib/BI6727 = compound: CC[C@@H]1C(=O)N(C)c2cnc(Nc3ccc(C(=O)N[C@H]4CC[C@H](N5CCN(CC6CC6)CC5)CC4)cc3OC)nc2N1C(C)C [Volasertib/BI6727]
Taselisib/GDC0032 = compound: Cc1nc(-c2cn3c(n2)-c2ccc(-c4cnn(C(C)(C)C(N)=O)c4)cc2OCC3)n(C(C)C)n1 [Taselisib/GDC0032]
[3] = compound: CCN1CCN(Cc2ccc(Nc3ncc(F)c(-c4cc(F)c5nc(C)n(C(C)C)c5c4)n3)nc2)CC1
THZ531 = compound: CN(C)C/C=C/C(=O)Nc1ccc(C(=O)N2CCC[C@@H](Nc3ncc(Cl)c(-c4c[nH]c5ccccc45)n3)C2)cc1 [THZ531]
Neratinib/HKI272 [4] = compound: T2, CCOc1cc2ncc(C#N)c(Nc3ccc(OCc4ccccn4)c(Cl)c3)c2cc1NC(=O)/C=C/CN(C)C [Neratinib/HKI272]
Pictilisib/GDC0941 = compound: CS(=O)(=O)N1CCN(Cc2cc3nc(-c4cccc5[nH]ncc45)nc(N4CCOCC4)c3s2)CC1 [Pictilisib/GDC0941]
INK128/MLN0128 = compound: CC(C)n1nc(-c2ccc3oc(N)nc3c2)c2c(N)ncnc21 [INK128/MLN0128]
BSJ-03-123 [5] = compound: T3, CC(=O)c1c(C)c2cnc(Nc3ccc(N4CCN(CCOCCOCCOCCNC(=O)COc5cccc6c5C(=O)N(C5CCC(=O)NC5=O)C6=O)CC4)cn3)nc2n(C2CCCC2)c1=O [BSJ-03-123]
ABT-737 = compound: CN(C)CC[C@H](CSc1ccccc1)Nc1ccc(S(=O)(=O)NC(=O)c2ccc(N3CCN(Cc4ccccc4-c4ccc(Cl)cc4)CC3)cc2)cc1[N+](=O)[O-] [ABT-737]
LEE011/Ribociclib [6] = compound: T1, LEE011/Ribociclib; test: GR value, 72 h; higher = faster growth (1 = untreated, <0 = killing);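 note: breast cancer and non-malignant breast epithelial lines, nine half-log doses, viable cells counted by Hoechst and LIVE/DEAD dye imaging versus time-zero plates and DMSO controls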
[7] = compound: CCN1CCN(Cc2ccc(Nc3ncc(F)c(-c4cc(F)c5nc(C)n(C(C)C)c5c4)n3)nc2)CC1; test: as above
Neratinib/HKI272 [8] = compound: T2, Neratinib/HKI272; test: as above
BSJ-03-123 [9] = compound: T3, BSJ-03-123; test: as above
YKL-5-124 = compound: C=CC(=O)Nc1ccc(C(=O)Nc2[nH]nc3c2CN(C(=O)N[C@H](CN(C)C)c2ccccc2)C3(C)C)cc1 [YKL-5-124]; test: as above
[10] = compound: CCc1cnn2c(NCc3ccc[n+]([O-])c3)cc(N3CCCC[C@H]3CCO)nc12; test: as above
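Throughout, for GR50, 72 h: breast cancer and non-malignant breast epithelial cell lines, Deep Dye Drop or Dye Drop imaging, nine half-log doses, GR normalized to time-zero plates and DMSO-only controls.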

BT549
GR50, 72 h [1]: 0.00315 µM
GR50, 72 h (Paclitaxel): 0.00272 µM
GR50, 72 h (Tivantinib/ARQ197): 0.582 µM
GR50, 72 h (Ceritinib/LDK378): 2.96 µM
GR50, 72 h (LEE011/Ribociclib [2]): > 10 µM
GR50, 72 h (Volasertib/BI6727): 0.00884 µM
GR50, 72 h (Taselisib/GDC0032): 2.21 µM
GR50, 72 h [3]: 3.97 µM
GR50, 72 h (THZ531): 0.302 µM
GR50, 72 h (Neratinib/HKI272 [4]): 1.99 µM
GR50, 72 h (Pictilisib/GDC0941): 2.78 µM
GR50, 72 h (INK128/MLN0128): 0.0166 µM
GR50, 72 h (BSJ-03-123 [5]): 6.36 µM
GR50, 72 h (ABT-737): > 10 µM
GR value (LEE011/Ribociclib [6]; 0.001 µM): 0.972 GR
GR value (LEE011/Ribociclib [6]; 0.003162 µM): 1.06 GR
GR value (LEE011/Ribociclib [6]; 0.01 µM): 0.919 GR
GR value (LEE011/Ribociclib [6]; 0.03162 µM): 0.997 GR
GR value (LEE011/Ribociclib [6]; 0.1 µM): 1 GR
GR value (LEE011/Ribociclib [6]; 0.3162 µM): 0.995 GR
GR value (LEE011/Ribociclib [6]; 1 µM): 1 GR
GR value (LEE011/Ribociclib [6]; 3.162 µM): 0.966 GR
GR value (LEE011/Ribociclib [6]; 10 µM): 0.992 GR
GR value ([7]; 0.001 µM): 0.992 GR
GR value ([7]; 0.003162 µM): 1.03 GR
GR value ([7]; 0.01 µM): 0.997 GR
GR value ([7]; 0.03162 µM): 1.02 GR
GR value ([7]; 0.1 µM): 0.952 GR
GR value ([7]; 0.3162 µM): 0.963 GR
GR value ([7]; 1 µM): 0.895 GR
GR value ([7]; 3.162 µM): 0.588 GR
GR value ([7]; 10 µM): 0.0335 GR
GR value (Neratinib/HKI272 [8]; 0.0003162 µM): 1.02 GR
GR value (Neratinib/HKI272 [8]; 0.001 µM): 1.03 GR
GR value (Neratinib/HKI272 [8]; 0.003162 µM): 1 GR
GR value (Neratinib/HKI272 [8]; 0.01 µM): 1.04 GR
GR value (Neratinib/HKI272 [8]; 0.03162 µM): 1.02 GR
GR value (Neratinib/HKI272 [8]; 0.1 µM): 0.969 GR
GR value (Neratinib/HKI272 [8]; 0.3162 µM): 0.904 GR
GR value (Neratinib/HKI272 [8]; 1 µM): 0.793 GR
GR value (Neratinib/HKI272 [8]; 3.162 µM): 0.196 GR
GR value (BSJ-03-123 [9]; 0.001 µM): 0.998 GR
GR value (BSJ-03-123 [9]; 0.003162 µM): 0.999 GR
GR value (BSJ-03-123 [9]; 0.01 µM): 1 GR
GR value (BSJ-03-123 [9]; 0.03162 µM): 0.988 GR
GR value (BSJ-03-123 [9]; 0.1 µM): 0.998 GR
GR value (BSJ-03-123 [9]; 0.3162 µM): 0.976 GR
GR value (BSJ-03-123 [9]; 1 µM): 0.938 GR
GR value (BSJ-03-123 [9]; 3.162 µM): 0.88 GR
GR value (BSJ-03-123 [9]; 10 µM): 0.0237 GR
GR value (YKL-5-124; 0.001 µM): 0.747 GR
GR value (YKL-5-124; 0.003162 µM): 0.497 GR
GR value (YKL-5-124; 0.01 µM): 0.301 GR
GR value (YKL-5-124; 0.03162 µM): 0.125 GR
GR value (YKL-5-124; 0.1 µM): 0.0904 GR
GR value (YKL-5-124; 0.3162 µM): 0.0362 GR
GR value (YKL-5-124; 1 µM): -0.0144 GR
GR value (YKL-5-124; 3.162 µM): -0.0731 GR
GR value (YKL-5-124; 10 µM): -0.58 GR
GR value ([10]; 0.0001 µM): 0.971 GR
GR value ([10]; 0.0003162 µM): 1.02 GR
GR value ([10]; 0.001 µM): 1 GR
GR value ([10]; 0.003162 µM): 0.996 GR
GR value ([10]; 0.01 µM): 0.698 GR
GR value ([10]; 0.03162 µM): -0.221 GR
GR value ([10]; 0.1 µM): -0.261 GR
GR value ([10]; 0.3162 µM): -0.275 GR
GR value ([10]; 1 µM): -0.293 GR

MDAMB436
GR50, 72 h [1]: 0.00237 µM
GR50, 72 h (Paclitaxel): 0.00371 µM
GR50, 72 h (Tivantinib/ARQ197): 0.368 µM
GR50, 72 h (Ceritinib/LDK378): 0.499 µM
GR50, 72 h (LEE011/Ribociclib [2]): > 10 µM
GR50, 72 h (Volasertib/BI6727): 0.00518 µM
GR50, 72 h (Taselisib/GDC0032): 4.66 µM
GR50, 72 h [3]: 2.1 µM
GR50, 72 h (THZ531): 0.19 µM
GR50, 72 h (Neratinib/HKI272 [4]): 0.715 µM
GR50, 72 h (Pictilisib/GDC0941): 5.27 µM
GR50, 72 h (INK128/MLN0128): 0.0241 µM
GR50, 72 h (BSJ-03-123 [5]): 7.25 µM
GR50, 72 h (ABT-737): > 10 µM
GR value (LEE011/Ribociclib [6]; 0.001 µM): 0.982 GR
GR value (LEE011/Ribociclib [6]; 0.003162 µM): 1.05 GR
GR value (LEE011/Ribociclib [6]; 0.01 µM): 1.06 GR
GR value (LEE011/Ribociclib [6]; 0.03162 µM): 1.08 GR
GR value (LEE011/Ribociclib [6]; 0.1 µM): 0.913 GR
GR value (LEE011/Ribociclib [6]; 0.3162 µM): 1.03 GR
GR value (LEE011/Ribociclib [6]; 1 µM): 0.95 GR
GR value (LEE011/Ribociclib [6]; 3.162 µM): 0.982 GR
GR value (LEE011/Ribociclib [6]; 10 µM): 0.951 GR
GR value ([7]; 0.001 µM): 1.04 GR
GR value ([7]; 0.003162 µM): 1 GR
GR value ([7]; 0.01 µM): 1.04 GR
GR value ([7]; 0.03162 µM): 1.03 GR
GR value ([7]; 0.1 µM): 1.02 GR
GR value ([7]; 0.3162 µM): 1 GR
GR value ([7]; 1 µM): 0.719 GR
GR value ([7]; 3.162 µM): 0.337 GR
GR value ([7]; 10 µM): -0.322 GR
GR value (Neratinib/HKI272 [8]; 0.0003162 µM): 1 GR
GR value (Neratinib/HKI272 [8]; 0.001 µM): 0.997 GR
GR value (Neratinib/HKI272 [8]; 0.003162 µM): 1.03 GR
GR value (Neratinib/HKI272 [8]; 0.01 µM): 1.04 GR
GR value (Neratinib/HKI272 [8]; 0.03162 µM): 0.993 GR
GR value (Neratinib/HKI272 [8]; 0.1 µM): 0.878 GR
GR value (Neratinib/HKI272 [8]; 0.3162 µM): 0.641 GR
GR value (Neratinib/HKI272 [8]; 1 µM): 0.43 GR
GR value (Neratinib/HKI272 [8]; 3.162 µM): 0.0253 GR
GR value (BSJ-03-123 [9]; 0.001 µM): 1.1 GR
GR value (BSJ-03-123 [9]; 0.003162 µM): 1.07 GR
GR value (BSJ-03-123 [9]; 0.01 µM): 1.02 GR
GR value (BSJ-03-123 [9]; 0.03162 µM): 1.03 GR
GR value (BSJ-03-123 [9]; 0.1 µM): 1.11 GR
GR value (BSJ-03-123 [9]; 0.3162 µM): 0.971 GR
GR value (BSJ-03-123 [9]; 1 µM): 0.999 GR
GR value (BSJ-03-123 [9]; 3.162 µM): 0.966 GR
GR value (BSJ-03-123 [9]; 10 µM): -0.0484 GR
GR value (YKL-5-124; 0.001 µM): 0.84 GR
GR value (YKL-5-124; 0.003162 µM): 0.563 GR
GR value (YKL-5-124; 0.01 µM): 0.533 GR
GR value (YKL-5-124; 0.03162 µM): 0.432 GR
GR value (YKL-5-124; 0.1 µM): 0.409 GR
GR value (YKL-5-124; 0.3162 µM): 0.3 GR
GR value (YKL-5-124; 1 µM): 0.405 GR
GR value (YKL-5-124; 3.162 µM): 0.291 GR
GR value (YKL-5-124; 10 µM): -0.0192 GR
GR value ([10]; 0.0001 µM): 0.969 GR
GR value ([10]; 0.0003162 µM): 1.01 GR
GR value ([10]; 0.001 µM): 1.07 GR
GR value ([10]; 0.003162 µM): 1.11 GR
GR value ([10]; 0.01 µM): 0.868 GR
GR value ([10]; 0.03162 µM): -0.101 GR
GR value ([10]; 0.1 µM): -0.124 GR
GR value ([10]; 0.3162 µM): -0.0986 GR
GR value ([10]; 1 µM): -0.15 GR
